For assay [1], the system named is Lncap cells. The following applies: 48 h.
A further assay deals with AGA model mice. Put plainly: Hair restoration in testosterone propionate-induced AGA model mice. In kind it is in vivo. The following applies: for Effective rate of animal hair restoration (effective rate of drug) / Hair restoration compared with the model group: AGA model mice, intragastric administration for 4 weeks. How it is done:
Animal experiment-related reagents: testosterone propionate, Batch No. T818615. Soybean oil, Batch No. A23GS146219. 80 mg of testosterone propionate was dissolved in 40 mL of soybean oil to prepare a solution at 2 mg/mL. […] Flibanserin, Batch No. W1608745834, 0.32 mg of flibanserin was dissolved in 20 mL of physiological saline to prepare a solution at 1.6×10^−2 mg/mL
The experimental animals are male […] mice, non-inbred closed colony, weighing 18-22 g, aged 5 weeks, certificate number: No. 202207119, provided by the Institute of Comparative Medicine, Yangzhou University. In the laboratory, room temperature is 20° C.-22° C., the relative humidity is 40%-60%, ventilation is provided by a ventilation fan, and the natural light source is provided for 12 h/day. The mice were caged, with 7 mice per cage, and the cages were cleaned every three days.
Before the injection of testosterone propionate for modeling, pre-treatment was first performed, wherein the pre-treatment comprises: fixing the mice, shaving off the hairs on the back of the mice by an electric shaver, and unhairing vellus hairs using an unhairing cream. […] After successful modeling, the intragastric administration was performed for 4 weeks on the basis of the injection of the testosterone propionate solution. After the administration was completed, the effective rate (percentage of hair restoring mice to the total number of mice) of the drug was subjected to statistical analysis, and the ratio of the area of the hair growing part to the area of the unhairing part in mice was subjected to statistical analysis. The mouse hairs were taken from multiple points at different hair restoring parts on the back of the mice for length measurement and statistical analysis. The mice were sacrificed by cervical dislocation, and the back skin was taken, wherein a part of the back skin was frozen at −80° C. for extracting protein and performing a nuclear protein and cytoplasmic protein separation experiment to explore the inhibition of the drug on the nuclear localization of the androgen receptor dimer, and a part of the back skin was fixed with 4% paraformaldehyde (Cat. No.: AF030) for 48 h, and then subjected to tissue section and HE staining. […] Determination criteria: The unhairing area of the back of the mice after unhairing was measured, noted as A, the hair growing area of the back of the mice after the completion of the administration was measured, noted as B, and the mean value of the […] in each group was taken as the effective rate of animal hair restoration.

The target of the next assay is T1, androgen receptor (Mus musculus, UniProt P19091).
T1 construct: Mouse primary hair follicle dermal papilla cells were extracted according to enzymatic digestion and cultured for 10 days; endogenous in cells; host or cells: mouse primary hair follicle dermal papilla cells
T1 sequence (P19091 1-899): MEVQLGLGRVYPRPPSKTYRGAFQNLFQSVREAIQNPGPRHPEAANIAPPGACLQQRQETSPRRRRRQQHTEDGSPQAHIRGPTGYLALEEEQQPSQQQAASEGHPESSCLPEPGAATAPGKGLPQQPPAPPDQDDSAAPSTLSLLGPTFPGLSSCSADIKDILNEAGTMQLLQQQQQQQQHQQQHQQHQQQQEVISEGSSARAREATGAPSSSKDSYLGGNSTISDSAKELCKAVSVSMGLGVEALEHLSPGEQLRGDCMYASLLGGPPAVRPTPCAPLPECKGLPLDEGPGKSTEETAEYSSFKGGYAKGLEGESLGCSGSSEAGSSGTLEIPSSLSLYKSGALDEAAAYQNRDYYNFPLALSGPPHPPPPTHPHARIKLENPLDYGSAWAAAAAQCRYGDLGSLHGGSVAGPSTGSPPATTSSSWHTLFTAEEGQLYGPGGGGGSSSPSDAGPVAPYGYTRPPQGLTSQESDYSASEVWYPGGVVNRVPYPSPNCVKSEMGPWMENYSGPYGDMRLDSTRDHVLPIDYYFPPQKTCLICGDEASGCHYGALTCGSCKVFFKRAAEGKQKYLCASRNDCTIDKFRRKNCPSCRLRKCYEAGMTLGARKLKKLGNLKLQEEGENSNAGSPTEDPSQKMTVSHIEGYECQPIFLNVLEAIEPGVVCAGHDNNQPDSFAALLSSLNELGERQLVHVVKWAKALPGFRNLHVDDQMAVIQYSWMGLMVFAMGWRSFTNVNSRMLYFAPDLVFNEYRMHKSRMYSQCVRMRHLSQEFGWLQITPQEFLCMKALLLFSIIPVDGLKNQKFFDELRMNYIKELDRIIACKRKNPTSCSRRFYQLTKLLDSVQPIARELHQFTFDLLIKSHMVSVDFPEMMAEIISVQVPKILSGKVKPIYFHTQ
Description: Nuclear protein and cytoplasmic protein separation experiment in primary hair follicle dermal papilla cells. The format is cell-based. The following applies: 48 h.

The subject of assay [2] is Lncap cells. Description: Inhibition of proliferation of DHT-stimulated Lncap cells by flibanserin (MTT). In kind it is cell-based, human. The settings on record: for OD value in administration group-OD value in control group: replicate values.
The mark [3] stands for this setting: DHT 10^−8 mol/L + flibanserin 5 and 1 μmol/L (both doses), compared with finasteride group and DHT group.
[4] abbreviates: HE staining of tissue sections, compared with the model group.

These results are taken from patent publication US12194038B2, “Use of flibanserin in preparation of drug for treating androgenic alopecia” (SHANGHAI DIMAIHE BIOTECHNOLOGY CO., LTD., priority 2022, dated 2025).

Several values for one entry are separate records, joined by “and”; a condition that tells them apart may be missing. Equal entries are not always repeated. Where two headings read alike, the source gives them in different places.

Regarding `C[C@]12CCC(=O)C[C@@H]1CC[C@@H]1[C@@H]2CC[C@]2(C)[C@@H](O)CC[C@@H]12` [DHT, dihydrotestosterone], the Mean proliferation rate was −12.91% with Lncap cells [1] (DHT 10^−5 uM); 6.30% in the assay on Lncap cells [1] (DHT 10^−6 uM); 7.77% in the assay with Lncap cells [1] (DHT 10^−7 uM); 9.47% in the assay on Lncap cells [1] (DHT 10^−8 uM); 10.01% in the assay on Lncap cells [1] (DHT 10^−9 uM); 2.79% with Lncap cells [1] (DHT 10^−10 uM).

On to `CC(C)(C)NC(=O)[C@H]1CC[C@H]2[C@@H]3CC[C@H]4NC(=O)C=C[C@]4(C)[C@H]3CC[C@]12C` [Finasteride, finasteride], for which the “Effective rate of animal hair restoration (effective rate of drug)” value (“Effective rate” below) in the assay with AGA model mice was found to be 71.4%. For the same compound, in the assay with AGA model mice (listed as finasteride), the “Effective rate” value was 71.4% and the “Hair restoration compared with the model group” value is on record as “restored to varying degrees”.

Regarding `O=c1[nH]c2ccccc2n1CCN1CCN(c2cccc(C(F)(F)F)c2)CC1` [Flibanserin, flibanserin], on androgen receptor (DHT 10^−8 mol/L + finasteride 5 μmol/L or flibanserin 5 and 1 μmol/L, compared with DHT group), the “Total level of the androgen receptor” value is on record as “no significant difference”. Moreover, the “Level of the androgen receptor in the cytoplasm” value on androgen receptor (setting [3]) is given as “increased”. Also, at androgen receptor (setting [3]), the “Level of the androgen receptor in the nucleus” value is recorded as “decreased”. Further, the “Effective rate” value in the assay on AGA model mice and with AGA model mice (listed as flibanserin) was 85.7% in each case. In addition, the “Hair restoration compared with the model group” value in the assay with AGA model mice (listed as flibanserin) is “restored to varying degrees”. Further, in the assay on AGA model mice (setting [4]), the “Diameter of hair follicles” value was “increase”. Besides, the “Number of hair follicles per unit area” value in the assay with AGA model mice (setting [4]) is given as “increase”. The “Ratio of anagen to telogen” value with AGA model mice (setting [4]) is “increase”. Moreover, in the assay on AGA model mice (setting [4]), the “Ratio of epidermal thickness to dermal thickness” value is given as “increase”. The Hair length entry in the assay on AGA model mice (compared with the model group) is “increase”. Moreover, the inhibition at 0.001 µM with Lncap cells [2] (Homo sapiens, LNCaP, flibanserin 0.001 uM, 48 h, after modeling with 10^−9 M DHT, read-out: Mean proliferation inhibition rate) was determined as 11.9%. Besides, the inhibition at 0.1 µM in the assay on Lncap cells [2] (Homo sapiens, LNCaP, flibanserin 0.1 uM, 48 h, after modeling with 10^−9 M DHT, read-out: Mean proliferation inhibition rate) was determined as 11%. For the same compound, the inhibition at 1 µM in the assay on Lncap cells [2] (Homo sapiens, LNCaP, flibanserin 1 uM, 48 h, after modeling with 10^−9 M DHT, read-out: Mean proliferation inhibition rate) worked out at 20.1%. Moreover, the inhibition at 10 µM in the assay with Lncap cells [2] (Homo sapiens, LNCaP, flibanserin 10 uM, 48 h, after modeling with 10^−9 M DHT, read-out: Mean proliferation inhibition rate) stood at 45.9%. Besides, the inhibition at 50 µM in the assay with Lncap cells [2] (Homo sapiens, LNCaP, flibanserin 50 uM, 48 h, after modeling with 10^−9 M DHT, read-out: Mean proliferation inhibition rate) was 82.4%. Besides, in the assay on Lncap cells [2] (Homo sapiens, LNCaP, flibanserin 100 uM, 48 h, after modeling with 10^−9 M DHT, read-out: Mean proliferation inhibition rate), the inhibition at 100 µM came out at 85.5%. For the same compound, the “OD value in administration group-OD value in control group” value in the assay with Lncap cells [2] (flibanserin 0.001 uM, 48 h) is 0.72 and 0.981 and 0.8943 and 0.8405 and 0.9681; in the assay with Lncap cells [2] (flibanserin 0.1 uM, 48 h) it was 0.7821 and 0.9153 and 0.9204 and 0.8399 and 0.9938; in the assay on Lncap cells [2] (flibanserin 1 uM, 48 h) it was 0.7947 and 0.8164 and 0.702 and 0.8345 and 0.8472; with Lncap cells [2] (flibanserin 10 uM, 48 h) it was 0.3592 and 0.6076 and 0.5562 and 0.5302 and 0.6538; in the assay with Lncap cells [2] (flibanserin 50 uM, 48 h), 0.1738 and 0.1424 and 0.1556 and 0.1886 and 0.2218; with Lncap cells [2] (flibanserin 100 uM, 48 h), 0.1345 and 0.1157 and 0.119 and 0.1751 and 0.1812. Further, the “Inhibition of the proliferation of Lncap cells” value with Lncap cells [2] (flibanserin at a low concentration, MTT) is “can inhibit”.
